Among the data in PubChem BioAssay (NCI) are GI50 and TGI values, retold here.

Holding throughout (assay): inhibition of tumour cell growth, NCI panel, 48 h
The test system of experiment [1] is A549 NSCLC.
The test system of experiment [2] is CAKI-1 renal.
Experiment [3] relates to COLO 205 colon.
The subject of experiment [4] is DU-145 prostate.
Experiment [5] relates to HCC-2998 colon.
Experiment [6] concerns MDA-MB-435.
Experiment [7] deals with SNB-19 CNS.
Experiment [8] relates to SNB-75 CNS.
For experiment [9], the system named is SW-620 colon.
For experiment [10], the system named is UACC-62 melanoma.

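These data come from cells grown in 96-well plates and exposed to compound for 48 hours at five concentrations. Abbreviation: GI50, concentration required for 50% inhibition of growth. At the TGI there is no net growth.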 Bounds are passed on as bounds.

On to `O=c1c2ccccc2n(C[C@H]2CO2)c2ccccc12`, for which the GI50 in experiment [1] is 2.45 µM; in experiment [2], 1.83 µM; in experiment [3], 1.49 µM; in experiment [4], 1.35 µM; in [5], 1.51 µM; in experiment [6] it was 1.61 µM. The GI50 in experiment [7] is 2.3 µM; in experiment [8], 1.52 µM; in [9] it was 0.828 µM; in experiment [10], 1.59 µM. For the same molecule, the TGI in [1] worked out at 7.28 µM; in experiment [2], 8.26 µM; in [3] it was 4.15 µM; in experiment [4] it was 5.85 µM; in [5], 3.44 µM; in experiment [6], 3.24 µM. Further, the TGI in [7] came out at 7.79 µM; in [8], 3.46 µM; in [9], 12.7 µM; in [10], 3.11 µM.
Consider `Cc1c(-c2c(-c3ccc(F)o3)sc3ncnc(O[C@H](Cc4ccccc4OCc4ccnn4CC(F)(F)F)C(=O)O)c23)ccc(OCCN2CCN(C)CC2)c1Cl`, for which the GI50 in experiment [1] is 13.4 µM; in [2], 6.21 µM; in [3], 4.29 µM; in experiment [4] it was 2.33 µM; in experiment [5], 3.48 µM; in experiment [6], 1.89 µM. In addition, the GI50 in experiment [7] was 4.7 µM; in experiment [8] it was 1.92 µM; in [9] it was 5.88 µM; in experiment [10], 0.249 µM. The TGI was 26.9 µM in experiment [1]; 19.2 µM in experiment [2]; 9.26 µM in [3]; 5.36 µM in experiment [4]; 7.57 µM in [5]; 6.37 µM in [6]. In addition, the TGI turned out to be 12.9 µM in [7], 5.61 µM in [8], 17.2 µM in experiment [9] and 3.13 µM in [10].
For `O=C(CNc1ccc2c(c1)C(=O)c1ccccc1C2=O)Nc1ccc2c(c1)C(=O)c1ccccc1C2=O`, the GI50 in experiment [1] is 1.68 µM; in experiment [2], 1.5 µM; in [3], 1.26 µM; in [4] it was 1.53 µM; in experiment [5], 1.58 µM; in experiment [6] it was 0.85 µM. Besides, the GI50 in experiment [7] is 1.45 µM; in experiment [8] it was 1.79 µM; in experiment [9], 0.186 µM; in experiment [10], 0.631 µM. The TGI is 3.58 µM in experiment [1]; 3.03 µM in [2]; 2.94 µM in [3]; 2.87 µM in experiment [4]; 2.99 µM in experiment [5]; 2.29 µM in experiment [6]. Further, the TGI in experiment [7] worked out at 2.9 µM; in [8] it was 4.3 µM; in experiment [9], 0.371 µM; in experiment [10], 1.95 µM.
As to `O=C(Nc1cc(Cl)cc(Cl)c1)c1ccc(NC2=C(Cl)C(=O)N(Cc3ccc(Cl)cc3Cl)C2=O)cc1`, the GI50 was over 100 µM in experiment [1]; 36.8 µM in experiment [2]; 12.1 µM in [3]; 20.1 µM in experiment [4]; 15 µM in experiment [5]; 25 µM in [6]. Moreover, the GI50 in [7] was 21.4 µM; in [8] it was 68 µM; in [9], 1.38 µM; in [10], 18.3 µM. In addition, the TGI in [1] was over 100 µM; in [2] it was over 100 µM; in experiment [3] it was 35.4 µM; in [4] it was 50.7 µM; in [5], 36.9 µM; in [6], 57.9 µM. The TGI in experiment [7] is 83.4 µM; in [8] it was over 100 µM; in experiment [9], 13.1 µM; in experiment [10], 38.2 µM.
`CCn1c(CN2CCN(Cc3ccccc3)CC2)nc2cc(NC(=O)c3cccs3)ccc21`: the GI50 in [2] is 18 µM; in [3], 13.5 µM; in experiment [4], 32.1 µM; in [5], 17.3 µM; in [6], 14.8 µM; in [7], 27.7 µM. Also, the results for the GI50 in [8], in experiment [9] and in [10] were 12.4 µM, 17.5 µM and 14.3 µM, respectively. Also, the TGI is 63 µM in [2]; 29.3 µM in experiment [3]; over 100 µM in experiment [4]; 35.6 µM in [5]; 28.9 µM in [6]; over 100 µM in [7]. Further, the TGI in experiment [8] came out at 30.6 µM; in experiment [9] it was 43.4 µM; in [10], 31.5 µM.
As to `CCc1c(C#N)c(S[C@@H](C(N)=O)c2ccccc2)nc(N(C)C)c1C#N`, the GI50 is 12.9 µM in experiment [2]; over 100 µM in [3]; over 100 µM in experiment [4]; over 100 µM in [5]; over 100 µM in [6]; 3.46 µM in experiment [7]. Besides, the GI50 was 2.11 µM in [8] and over 100 µM in [9]. Also, the TGI in experiment [2] was over 100 µM; in experiment [3] it was over 100 µM; in experiment [4] it was over 100 µM; in [5], over 100 µM; in experiment [6], over 100 µM; in experiment [7], 21.5 µM. The TGI is 7.18 µM in experiment [8] and over 100 µM in experiment [9].
As to `CC(C)(C)c1nn(-c2ccccc2)c2c1C(=O)CSC(c1ccccc1Cl)N2` (configuration not stated), the GI50 was 1.67 µM in experiment [1]; 1.24 µM in [2]; 2.51 µM in experiment [3]; 2.86 µM in experiment [4]; 2.08 µM in experiment [5]; 0.304 µM in [6]. The results for the GI50 in experiment [7], in experiment [8] and in experiment [10] were 2.54 µM, 2.2 µM and 0.775 µM, respectively. In addition, the TGI was determined as 14 µM in [1]; 22.2 µM in experiment [2]; 6.01 µM in experiment [3]; 10.7 µM in experiment [4]; 7.51 µM in [5]; 1.31 µM in experiment [6]. Further, the TGI is 15.2 µM in experiment [7], 13.9 µM in [8] and 15 µM in [10].
